In patent publication EP0418591B1 (priority 1989, dated 1991):
Where two headings read alike, the source gives them in different places. Marks after values point to notes of the source that are not given here.

How the values were obtained:
Cough in Guinea Pigs = test system: Cough in Guinea Pigs; design: species or system Dunkin Hartley guinea pigs; conditions: guinea pig, in vivo
[1] = target: T1, Delta opiate binding sites (Rattus norvegicus, UniProt P33533); design: species or system Sprague-Dawley rats
T1 construct: from tissue; host or cells: rat brain minus cerebellum, twice-washed P2 membrane fraction

Mu opiate binding sites = target: T2, Mu opiate binding sites (Rattus norvegicus, UniProt P33535); design: species or system Sprague-Dawley rats
T2 construct: from tissue; host or cells: rat brain minus cerebellum, twice-washed P2 membrane fraction
T2 sequence (P33535 whole entry): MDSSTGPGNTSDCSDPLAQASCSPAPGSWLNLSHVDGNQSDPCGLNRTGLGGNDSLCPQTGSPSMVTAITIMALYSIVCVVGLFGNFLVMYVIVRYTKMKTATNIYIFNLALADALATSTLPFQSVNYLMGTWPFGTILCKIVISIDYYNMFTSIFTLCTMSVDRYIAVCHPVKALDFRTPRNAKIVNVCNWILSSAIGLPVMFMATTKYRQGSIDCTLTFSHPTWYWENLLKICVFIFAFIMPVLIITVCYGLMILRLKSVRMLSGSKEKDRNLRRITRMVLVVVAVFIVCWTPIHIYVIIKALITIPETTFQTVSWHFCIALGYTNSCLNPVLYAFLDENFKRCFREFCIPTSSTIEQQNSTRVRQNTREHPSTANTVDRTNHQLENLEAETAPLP

T1 sequence (P33533 whole entry): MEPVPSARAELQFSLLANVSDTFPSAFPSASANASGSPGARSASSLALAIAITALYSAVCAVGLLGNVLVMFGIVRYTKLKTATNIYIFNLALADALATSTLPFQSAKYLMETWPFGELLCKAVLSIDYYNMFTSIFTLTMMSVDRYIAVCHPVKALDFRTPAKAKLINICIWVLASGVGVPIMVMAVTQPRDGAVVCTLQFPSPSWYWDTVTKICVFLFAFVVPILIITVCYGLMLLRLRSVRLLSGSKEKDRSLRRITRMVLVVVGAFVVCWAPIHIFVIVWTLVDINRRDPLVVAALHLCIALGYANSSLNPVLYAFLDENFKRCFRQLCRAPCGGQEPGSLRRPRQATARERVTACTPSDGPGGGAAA

Compound | inhibition of cough (Cough in Guinea Pigs) [%] | % Inhibition of Coughing 5 min (Cough in Guinea Pigs; po) | % Inhibition of Coughing 10 min (Cough in Guinea Pigs; po) | % Inhibition of Coughing 5 min (Cough in Guinea Pigs; sc) | % Inhibition of Coughing 10 min (Cough in Guinea Pigs; sc) | IC50 ([1]; read-out: IC₅₀ Delta) [nM] | Ki ([1]; read-out: Ki Delta) [nM] | IC50 (Mu opiate binding sites; read-out: IC₅₀ Mu) [nM] | Ki (Mu opiate binding sites; read-out: Ki Mu) [nM]
COc1ccc2c3c1O[C@H]1[C@@H](O)C=C[C@H]4[C@@H](C2)N(C)CC[C@@]341 [(-)-codeine] | 46 | 42.7*** % | 38.7*** % | 46.2*** % | 46.1*** % | – | – | – | –
CC(C)C[C@H](NC(=O)[C@H](Cc1ccccc1)NC(=O)CNC(=O)[C@H](NC(=O)[C@@H](N)Cc1ccc(O)cc1)[C@H](C)O)C(=O)N[C@H](C(=O)O)[C@@H](C)O [DTLET, D-Thr²-Leu-Enkephalin-Thr] | – | – | – | – | – | 2.7 | 1.2 | 184 | 105
